Tested on: rat adjuvant arthritis model
Test: Anti-arthritic action in rat adjuvant arthritis model (footpad volume increase suppression)
Assay type: in vivo
Conditions: female Lewis rats, oral once a day, Compound No. 1 0.1 mg/kg, Formula (II) 10.0 mg/kg; for Footpad volume increase suppression ratio (%) After 11 days: right hind leg volume on day 11 after start of administration; for Footpad volume increase suppression ratio (%) After 18 days: right hind leg volume on day 18 after start of administration
Method: A rat adjuvant arthritis model developing arthritis that is similar to human rheumatoid arthritis was used, and effect of the pharmaceutical composition according to the present invention with respect to the arthritis was evaluated by using footpad volume increase suppression rate as an indicator. Eight-week old female Lewis rats were used in the experiment.
Heat killed Mycobacterium butyricum was ground in an agate mortar, then suspended in dry heat sterilized liquid paraffin so as to have a concentration of 2 mg/ml, and treated with sonication to prepare an adjuvant.
The test compound was suspended or dissolved in a 0.5% tragacanth solution. As the test compound, the compound of Compound No. 1 described in Table 1 was used as the amino alcohol derivative, and the compound of the formula (II) was used as the PPAR regulator.
0.05 ml of the adjuvant prepared in (1) was injected subcutaneously into the footpad of right hind leg of rats, with respect to a control group and a test compound administration group. Here, 5 rats were used for each group. In addition, a normal control group was provided as a group without injection of the adjuvant.
The test compound prepared in (2) was orally administrated once a day in the amount of 5 ml/kg, […]. The control group was administered with only the 0.5% tragacanth solution in a similar manner.
After the start of administration, on day 11 and day 18, the volume of the right hind leg was measured by a leg volume measuring device, and the mean value of the swelling volume was calculated for each group.
The footpad volume increase suppression ratio (%) was calculated by the following equation, and evaluated.
Footpad volume increase suppression ratio (%)=(1-([footpad volume of test compound administration group]-[footpad volume of normal control group])/[footpad volume of control group]−[footpad volume of normal control group]))×100

SMILES | Footpad volume increase suppression ratio (%) After 11 days [%] | Footpad volume increase suppression ratio (%) After 18 days [%]
COc1ccc2nc(COc3ccc(CC4SC(=O)NC4=O)cc3)n(C)c2c1.Cl (stereo not shown) [Formula (II), 5-[4-(6-methoxy-1-methyl-1-H-benzimidazol-2-ylmethoxy)benzyl]thiazoline-2,4-dione hydrochloride] | 24.7 | 30.1
Cn1c(CC[C@@](C)(N)CO)ccc1C(=O)CCCCc1ccccc1 [Compound No. 1] | 43.0 | 44.8

— patent US20080153882A1, “Pharmaceutical Composition Comprising Ppar Regulator” (priority 2005, published 2008)
